Two substances from patent US8828931B2, “Bifunctional molecules for inhibiting HIV entry” (priority 2008, dated 2014) can be followed below.

In one data set the test system is HIV-1 IIIB (B, X4). The protocol: The inhibitory activity of the bifunctional molecule on HIV-1 IIIB infection was determined by ELISA for p24 production (Jiang S et al. J Exp Med 174:1557-1563, 1991). Briefly, MT-2 cells were infected with HIV-1IIIB at 100 TCID50 (50% tissue culture infective dose) in RPMI 1640 medium containing 10% FBS in the presence or absence of an antigen specific antiserum or IgG antibody in serial 2-fold dilutions at 37° C. overnight. The culture supernatants were then removed and fresh media were added. On day 4 post-infection, the culture supernatants were collected and mixed with equal volumes of 5% Triton X-100 for the detection in the p24 protein ELISA.

Another data set deals with proteinase K (Parengyodontium album, UniProt P06873). Kind of data set: Resistance to proteolysis by proteinase K. To be noted: 4 μM in PBS, immobilized proteinase K 0.1 unit/ml, 37° C.
The test system of the next data set is NL4-3V38A/N42G. The protocol: Briefly, 2×10^5 or 5×10^5 CEMx174 5.25M7 cells were infected with HIV-1 or HIV-2, respectively, at 100 TCID50 (50% tissue culture infective dose) in RPMI 1640 medium containing 10% FBS in the absence or presence of an antisera or purified IgG antibodies at graded concentrations overnight. On the fourth day post-infection, cells were harvested and lysed using a lysis buffer (Promega, Madison, Wis.). The luciferase activity was measured by Ultra 384 luminometer reader (Tecan) and the percent inhibition was calculated.

The subject of data set [1] is HIV-1 IIIB-mediated cell fusion (H9/HIV-1 IIIB effector cells, MT-2 target cells). The note with it: H9/HIV-1 IIIB and MT-2 cells, dye transfer. How it is done: HIV-1-mediated cell-cell fusion was determined by a dye transfer assay (Lu H et al. J Virol Methods 107:155-161, 2003) using Calcein AM-labeled HIV-1IIIB chronically infected H9 (H9/HIV-1 IIIB) cells as effector cells and MT-2 cells as target cells.

The next data set deals with 92US657 (B, R5). It is filed as cell-based, HIV-1. The protocol:
(§1) Briefly, the peripheral blood mononuclear cells (PBMCs) were isolated from the blood of healthy donors using a standard density gradient (Histopaque-1077, Sigma) centrifugation. After incubation at 37° C. for 2 hr, the nonadherent cells were collected and resuspended at 5×10^5/ml in RPMI 1640 medium containing 10% FBS, 5 μg of phytohemagglutinin (PHA)/ml, and 100 U of IL-2/ml, followed by incubation at 37° C. for 3 days. The PHA-stimulated cells were infected with the corresponding primary HIV-1 isolates at a multiplicity of infection (MOI) of 0.01 in the absence or presence of antisera at a serial 2-fold dilution. The supernatants were collected 7 days post-infection and tested for p24 antigen by ELISA as described above. The IC50 was calculated using the CalcuSyn
(§2) software as described above.

The subject of the next data set is 93IN101 (B, R5). It counts as cell-based, HIV-1. How it is done:
as §1, §2

Data set [2] in a line: In vitro stability in human serum, residual activity by cell-cell fusion inhibition assay. The note with it: 16 μM, 37° C., 100% human serum. From the text:
(§3) Samples were collected at different intervals and tested for the residual concentrations of the active component using cell-cell fusion inhibition assay as described above.

The nature of data set [3]: In vitro stability in PBMC culture, residual activity by cell-cell fusion inhibition assay. To be noted: 16 μM, 37° C.
Text: as §3

Like-named read-outs stand apart in the source and are kept apart here. No end group written: not given here.

proteinase K, sequence (P06873 106-384): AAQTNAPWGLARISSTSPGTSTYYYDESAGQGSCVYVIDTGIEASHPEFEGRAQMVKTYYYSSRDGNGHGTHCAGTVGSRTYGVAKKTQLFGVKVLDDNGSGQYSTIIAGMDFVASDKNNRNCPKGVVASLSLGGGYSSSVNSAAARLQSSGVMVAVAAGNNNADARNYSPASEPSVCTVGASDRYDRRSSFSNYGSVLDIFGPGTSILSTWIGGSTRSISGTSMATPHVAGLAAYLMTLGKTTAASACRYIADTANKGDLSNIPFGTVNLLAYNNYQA

On to “TTWMAWDREINNYTSLIHSLIRRSQNQQEKNEQELLELDKWASLLWNWF [T1144-C10]”, for which the IC50 in the data set on HIV-1 IIIB (B, X4) (read-out: IC50, HIV-1 replication, IIIB (B, X4), MT-2 cells, p24) was more than 250 nM. The IC90 in the data set on HIV-1 IIIB (B, X4) (read-out: IC90, HIV-1 replication, IIIB (B, X4), MT-2 cells, p24) is more than 250 nM.

For enfuvirtide, the “treatment time with proteinase K after which activity was totally lost” value on proteinase K worked out at 5 min. In the data set with NL4-3V38A/N42G (concentration up to 2,000 nM), the “inhibition of infection by T20-resistant strain” value is “no inhibition”. Moreover, the IC50 is more than 2000 nM in the data set with NL4-3V38A/N42G (read-out: IC50, HIV-1 replication, NL4-3V38A/N42G, T20-resistant HIV-1 strain, luciferase); 15.9 nM in data set [1] (read-out: IC50, concentration for inhibiting HIV-1 IIIB-mediated cell fusion); 1.7 nM in the data set with 92US657 (B, R5); 2.7 nM in the data set on 93IN101 (B, R5); 68.1 nM in the data set with HIV-1 IIIB (B, X4) (IIIB (B, X4)). For the same substance, the IC90 is more than 2000 nM in the data set with NL4-3V38A/N42G (read-out: IC90, HIV-1 replication, NL4-3V38A/N42G, T20-resistant HIV-1 strain, luciferase); 25.4 nM in data set [1] (read-out: IC90, concentration for inhibiting HIV-1 IIIB-mediated cell fusion); 13 nM with 92US657 (B, R5); 6.5 nM in the data set with 93IN101 (B, R5); 211 nM with HIV-1 IIIB (B, X4) (IIIB (B, X4)). For the same substance, in data set [2], the “residual activity in human serum after 6 days” value is given as 5%. Moreover, the “time after which activity began to be lost in PBMC” value in data set [3] (PBMC in RPMI1640 with 10% FBS) is listed as more than 2 days. The “activity lost in PBMC after 6 days incubation” value in data set [3] (PBMC, 6 days) is on record as more than 90%.
